Data: ChEMBL document CHEMBL3351616, “Synthesis and evaluation of novel benzophenone-thiazole derivatives as potent VEGF-A inhibitors” (Eur J Med Chem, 2014)
Calls of active or inactive are those of the source. The calls are words filed in the database; no cut-off is given here.

Columns and labels:
[1] = Cytotoxicity against mouse DLA cells after 48 hrs by LDH release assay; assay type: functional, cell-based
[2] = Cytotoxicity against mouse DLA cells after 48 hrs by MTT method; assay type: functional, cell-based
[3] = Cytotoxicity against mouse EAC cells after 48 hrs by LDH release assay; assay type: functional, cell-based; settings: Ehrlich
[4] = Cytotoxicity against mouse DLA cells after 48 hrs by trypan blue dye exclusion method; assay type: functional, cell-based
[5] = Cytotoxicity against mouse EAC cells after 48 hrs by trypan blue dye exclusion method; assay type: functional, cell-based; settings: Ehrlich
[6] = Cytotoxicity against mouse EAC cells after 48 hrs by MTT method; assay type: functional, cell-based; settings: Ehrlich
Ehrlich [7] = assay: Antitumor activity against mouse EAC cells allografted in mouse assessed as decrease in reduction in tumor volume at 50 mg/kg, ip as 3 doses on day 4,6 and 8 after tumor onset measured on day 10; assay type: functional, organism-based; set-up: dose 50 mg/kg
Mus musculus [8] = assay: Toxicity in Swiss albino mouse assessed as change in WBC at 50 mg/kg, ip consecutively for 10 days (reference value: […]); assay type: organism-based; set-up: dose 50 mg/kg, route intraperitoneal; settings: in vivo, 240 h
Mus musculus [9] = assay: Toxicity in Swiss albino mouse assessed as change in RBC at 50 mg/kg, ip consecutively for 10 days (reference value: 4.75 +/- 2.1 x 10^6 /uL); assay type: organism-based; set-up: dose 50 mg/kg, route intraperitoneal; settings: in vivo, 240 h
Mus musculus [10] = assay: Toxicity in Swiss albino mouse assessed as change in alkaline phosphatase level at 50 mg/kg, ip consecutively for 10 days (reference value: 124.98 +/- 1.2 IU/L); assay type: organism-based; set-up: dose 50 mg/kg, route intraperitoneal; settings: in vivo, 240 h
Mus musculus [11] = assay: Toxicity in Swiss albino mouse assessed as change in urea level at 50 mg/kg, ip consecutively for 10 days (reference value: 51 +/- 2.6 mg/dl); assay type: organism-based; set-up: dose 50 mg/kg, route intraperitoneal; settings: in vivo, 240 h
Ehrlich [12] = assay: Antitumor activity against mouse EAC cells allografted in mouse assessed as reduction in VEGF-A protein expression in tumor cells at 50 mg/kg, ip as 3 doses on day 4,6 and 8 after tumor onset by immunoblot method relative to control; assay type: functional, organism-based; set-up: dose 50 mg/kg
Ehrlich [13] = assay: Antitumor activity against mouse EAC cells allografted in mouse assessed as decrease in reduction in cell count at 50 mg/kg, ip as 3 doses on day 4,6 and 8 after tumor onset measured on day 10; assay type: functional, organism-based; set-up: dose 50 mg/kg
Ehrlich [14] = assay: Antitumor activity against mouse EAC cells allografted in mouse assessed as reduction in VEGF-A mRNA expression in tumor cells at 50 mg/kg, ip as 3 doses on day 4,6 and 8 after tumor onset by RT-PCR analysis; assay type: functional, organism-based; set-up: dose 50 mg/kg
Ehrlich [15] = assay: Reduction in VEGF-A protein secretion in culture media of mouse EAC cells by ELISA; assay type: functional, cell-based
[16] = Antitumor activity against mouse EAC cells allografted in mouse assessed as increase in lifespan at 50 mg/kg, ip as 3 doses on day 4,6 and 8 after tumor onset measured on day 10 (reference value: 10 days); assay type: functional, Ehrlich; settings: route intraperitoneal
Ehrlich [17] = assay: Antitumor activity against mouse EAC cells allografted in mouse assessed as decrease in ascites fluid secretion at 50 mg/kg, ip as 3 doses on day 4,6 and 8 after tumor onset measured on day 10; assay type: functional, organism-based; set-up: dose 50 mg/kg
Ehrlich [18] = assay: Antitumor activity against mouse EAC cells allografted in mouse assessed as zone of avascularization in peritoneum at 50 mg/kg, ip as 3 doses on day 4,6 and 8 after tumor onset measured on day 10; assay type: functional, organism-based; set-up: dose 50 mg/kg
[19] = Antitumor activity against mouse EAC cells allografted in mouse assessed as reduction in VEGF-A protein secretion in tumor cells at 50 mg/kg, ip as 3 doses on day 4,6 and 8 after tumor onset by ELISA relative to control; assay type: functional, Ehrlich; settings: route intraperitoneal
Mus musculus [20] = assay: Toxicity in Swiss albino mouse assessed as change in creatinine level at 50 mg/kg, ip consecutively for 10 days (reference value: 0.46 +/- 1.8 mg/dl); assay type: organism-based; set-up: dose 50 mg/kg, route intraperitoneal; settings: in vivo, 240 h

SMILES	IC50 [1]	IC50 [2]	IC50 [3]	IC50 [4]	IC50 [5]	IC50 [6]	further results
Cc1cc(C(=O)c2ccccc2F)ccc1OCC(=O)Nc1nc(-c2ccccc2)cs1	15.6 µM	14.8 µM	16.9 µM	13.7 µM	15.4 µM	16.7 µM	–
COc1ccc(-c2csc(NC(=O)COc3ccc(C(=O)c4ccc(C)cc4)cc3C)n2)cc1	18.7 µM	17.2 µM	20.9 µM	16 µM	19.4 µM	20.7 µM	–
Cc1cc(C(=O)c2ccccc2)ccc1OCC(=O)Nc1nc(-c2ccccc2)cs1	23 µM	22.3 µM	24.5 µM	21.5 µM	22.3 µM	24 µM	–
COc1ccc(-c2csc(NC(=O)COc3ccc(C(=O)c4cccc(F)c4)cc3C)n2)cc1	30.3 µM	28.4 µM	30.9 µM	27.8 µM	29.5 µM	30.7 µM	–
Cc1cc(C(=O)c2cccc(Br)c2)ccc1OCC(=O)Nc1nc(-c2ccccc2)cs1	23.6 µM	23.8 µM	25.9 µM	21.7 µM	24.3 µM	24.4 µM	–
COc1ccc(-c2csc(NC(=O)COc3ccc(C(=O)c4ccccc4)cc3C)n2)cc1	26.2 µM	25.7 µM	28.6 µM	24.2 µM	27.1 µM	28.4 µM	–
COc1ccc(-c2csc(NC(=O)COc3c(C)cc(C(=O)c4ccccc4)cc3C)n2)cc1	40.1 µM	39.4 µM	41.5 µM	38.4 µM	40.6 µM	41.2 µM	–
Cc1ccc(C(=O)c2ccc(OCC(=O)Nc3nc(-c4ccccc4)cs3)c(C)c2)cc1	27.1 µM	26.4 µM	30.5 µM	25 µM	28.4 µM	29.9 µM	–
Cc1cc(C(=O)c2ccc(F)cc2)ccc1OCC(=O)Nc1nc(-c2ccccc2)cs1	34.7 µM	33.3 µM	38.6 µM	32.1 µM	35.2 µM	37.4 µM	–
Cc1cc(C(=O)c2ccccc2)cc(C)c1OCC(=O)Nc1nc(-c2ccccc2)cs1	19.9 µM	19.4 µM	23.4 µM	19.1 µM	22.1 µM	22.7 µM	–
COc1ccc(-c2csc(NC(=O)COc3ccc(C(=O)c4ccc(F)cc4)cc3C)n2)cc1	5.5 µM	5.4 µM	5.8 µM	5 µM	5.2 µM	5.4 µM	Activity (Ehrlich [7]): Dose-dependent effect; Activity (Mus musculus [8]): 3.89 ×10⁶ /uL; Activity (Mus musculus [9]): 5.13 ×10⁶ /uL; Activity (Mus musculus [10]): 129 IU/L; Activity (Mus musculus [11]): 48 mg/dL; Activity (Ehrlich [12]): Active; Activity (Ehrlich [13]): Dose-dependent effect; Activity (Ehrlich [14]): Active; Activity (Ehrlich [15]): Dose-dependent effect; Survival [16]: 34 days; Activity (Ehrlich [17]): Dose-dependent effect; Activity (Ehrlich [18]): Active; fold change (FC) [19]: 5; Activity (Mus musculus [20]): 0.44 mg/dL
O=c1[nH]cc(F)c(=O)[nH]1 [FLUOROURACIL]	16.8 µM	15.6 µM	15.4 µM	15.3 µM	14.6 µM	–	–
Cc1cc(C(=O)c2ccccc2C)ccc1OCC(=O)Nc1nc(-c2ccccc2)cs1	23.7 µM	23.1 µM	26.4 µM	22.2 µM	24.3 µM	25.8 µM	–
O=C(COc1ccc(C(=O)c2ccccc2)cc1Br)Nc1nc(-c2ccccc2)cs1	43.5 µM	43.1 µM	46.4 µM	42 µM	45.8 µM	46 µM	–
COc1ccc(-c2csc(NC(=O)COc3ccc(C(=O)c4cccc(Br)c4)cc3C)n2)cc1	37.1 µM	36.6 µM	40.6 µM	35.4 µM	38.1 µM	39.2 µM	–
